Experimental data as given in patent US20240000939A1, “METHODS OF PERSONALIZED PRECONDITIONING FOR CELL THERAPY” (priority 2021, published 2024).
“Also recorded” adds a separate entry of the source.

What was measured:
R/R B-cell ALL (B-ALL) = assay: Retrospective PRWCC analysis: response, relapse, composite endpoint (relapse or loss of BCA) and overall survival after tisagenlecleucel; assay type: in vivo, human; conditions: for HR, overall survival, patients with high pre-infusion disease burden: sub-optimal fludarabine exposure
[1] = Retrospective PRWCC analysis: toxicity (CRS, neurotoxicity/ICANS, infection, neutropenia, cause of death) after tisagenlecleucel; assay type: in vivo, human
Method: Study Design. A retrospective analysis of pediatric and young adult patients with R/R B-ALL as part of the Pediatric Real-World CAR Consortium (PRWCC; n=15 centers) was conducted. Two hundred (n=200) patients underwent collection/manufacture for planned standard-of-care CD19-specific CAR T cell therapy (tisagenlecleucel).
Outcomes of interest. The main outcomes of interest were overall survival (OS), cumulative incidence of relapse (CIR), and the cumulative incidence of a composite endpoint (relapse or loss of BCA). Other outcomes of interest were response rates, cytokine release syndrome (CRS), and immune effector cell associated neurotoxicity syndrome (ICANS). Complete remission (CR) was defined as ≤5% bone marrow blasts by morphology, absence of circulating lymphoblasts, and no evidence of extramedullary disease. MRD negativity was defined as <0.01% abnormal B cells assessed by flow cytometry. Relapse was defined as any (medullary or extramedullary) evidence of hematologic, cytogenetic, and/or molecular recurrence of primary disease. CD19-positive B cell recovery was defined as any detectable CD19-positive B cells ([…]) on a peripheral blood lymphocyte flow cytometry panel. Toxicity grading was described according to ASTCT (Lee et al., Biol Blood Marrow Transplant. 04 2019; 25 (4):625-638) for CRS and ICANS. Additionally, patients were further delineated based on their disease burden: high disease burden (≥5% lymphoblasts, CNS3 disease and/or isolated EM disease), and no (undetectable) or low disease burden (<5% lymphoblasts, ≤CNS2 disease, and/or no detectable EM disease) based off the previous PRWCC analysis (Schultz et al., Blood. 2020; 136 (Supplement 1):14-15). The fludarabine exposure, area under the curve (AUC), for each patient was calculated using a population PK model as previously described in Langenhorst et al., Clin Pharmacokinet. May 2019; 58 (5):627-637. The patient variables required to calculate an estimated fludarabine exposure include estimated GFR (using either the Cockroft-Gault or Schwartz equation depending on age), actual body weight, height, and dosage of fludarabine utilized where actual body weight and estimated GFR are the best predictors of fludarabine PK (Langenhorst et al., Clin Pharmacokinet. May 2019; 58 (5):627-637).
Statistical Analysis. For all analyses, tisagenlecleucel infusion date was considered time zero (0). The impact of different factors on the chance of response was assessed through Mann-Whitney-Wilcoxon test for continuous variables, Chi-squared or Fisher's exact test for categorical variables (univariable analysis), and logistic regression (multivariable analysis). OS for all treated patients was defined as the time from infusion to death from all causes. OS in responding patients was defined as time from day of response (day 28 from CAR infusion) to death from all causes. Patients alive were censored at their last follow-up date. Time-to-relapse was defined as the time from the date of infusion to the date of disease relapse, while time-to-composite endpoint was defined as the time from the date of infusion to the date of either disease relapse or loss of BCA, whichever came first. For both endpoints, patients alive without disease relapse (and loss of BCA for composite endpoint) were censored at their date of last follow-up. Death and allo-HCT without disease relapse (and loss of BCA) were considered competing events. […]

[2] = Estimated fludarabine exposure (AUC) calculated with a population PK model; parameters: species or system human
[3] = multivariable, AUC <13.8 (sub-optimal) vs ≥13.8 mg*hr/L (ref), responding patients
[4] = univariable, AUC <13.8 vs ≥13.8 mg*hr/L (ref)
[5] = univariable, AUC <13.8 vs ≥13.8 mg*hr/L (ref), responding patients

## tisagenlecleucel
R/R B-cell ALL (B-ALL); Example 1
  12-month OS: 75%
  12-month cumulative incidence of relapse in responders: 39.2%
R/R B-cell ALL (B-ALL); Example 2
  12-month CIR in responding patients: 36.4%
R/R B-cell ALL (B-ALL); Example 2, entire cohort
  12-month OS: 75.1%
  24-month OS: 56.5%
R/R B-cell ALL (B-ALL); at 12-months, responding patients
  cumulative incidence of composite endpoint (relapse or loss of BCA): 55.2%
R/R B-cell ALL (B-ALL); n=152
  loss of BCA post CAR: (34%)
  relapsed post CAR: (36%)
R/R B-cell ALL (B-ALL); share of relapses post CAR
  CD19-negative relapse: (45%)
  CD19-positive relapse: (55%)
[1]; all patients, 12/152
  severe neurotoxicity (grade 3 or higher): 8%
[1]; all patients, 33/152
  severe CRS (sCRS; grade 3 or higher): 22%
[1]; all patients, 36/152
  neurotoxicity: 24%
[1]; all patients, 57/152
  infection post CAR T cell therapy: 38%
[1]; all patients, 97/148
  Grade 4 neutropenia: 66%
[1]; all patients, 97/152
  CRS: 64%
[1]; n=152
  CRS grade 1: (24%)
  CRS grade 2: (18%)
  CRS grade 3: (11%)
  CRS grade 4: (10%)
  CRS grade 5: (1%)
  CRS grade none: (36%)
  Neurotoxicity grade 1: (11%)
  Neurotoxicity grade 2: (5%)
  Neurotoxicity grade 3: (5%)
  Neurotoxicity grade 4: (2%)
  Neurotoxicity grade 5: (1%)
  Neurotoxicity grade none: (76%)
[1]; share of deaths
  Cause of death: ARDS/cardiac arrest: (2%)
  Cause of death: CRS: (2%)
  Cause of death: Infection: (10%)
  Cause of death: Leukemia: (74%)
  Cause of death: Neurotoxicity: (2%)
  Cause of death: Transplant related: (7%)

## Nc1nc(F)nc2c1ncn2[C@@H]1O[C@H](CO)[C@@H](O)[C@@H]1O [fludarabine, reference compound]
[2]; Example 1, exposure analyzed as continuous variable (FIG. 1)
  fludarabine AUC threshold of interest for disease relapse: 13800 ng·h/mL
[2]; Example 2, where hazard ratio curve for CIR crosses HR=1
  optimal fludarabine exposure (AUC): ≥ 13800 ng·h/mL
R/R B-cell ALL (B-ALL); multivariable analysis, AUC as continuous variable
  odds ratio of response by cumulative Flu AUC (mg*hr/L): 0.81
R/R B-cell ALL (B-ALL); multivariable, AUC <13.8 (sub-optimal) vs ≥13.8 mg*hr/L (ref)
  HR, overall survival in responding patients: 1.97
R/R B-cell ALL (B-ALL); multivariable, AUC <13.8 (sub-optimal) vs ≥13.8 mg*hr/L (ref), entire cohort
  HR, overall survival in all treated patients: 1.53
R/R B-cell ALL (B-ALL); [3]
  HR, cumulative incidence of composite endpoint (relapse or loss of B-cell aplasia): 1.96
  HR, cumulative incidence of relapse: 2.45
R/R B-cell ALL (B-ALL); all treated patients
  HR, overall survival, patients with high pre-infusion disease burden: 2.27
R/R B-cell ALL (B-ALL); responding patients only
  HR, overall survival, patients with high pre-infusion disease burden: 3.50
R/R B-cell ALL (B-ALL); [4]
  HR, overall survival in all treated patients: 1.51
  HR, overall survival in responding patients: 2.25
R/R B-cell ALL (B-ALL); [5]
  HR, cumulative incidence of composite endpoint (relapse or loss of B-cell aplasia): 1.77
  HR, cumulative incidence of relapse: 1.95
[1]; all received suboptimal fludarabine
  patients who died from infection: four
[1]; in vivo
  infection risk with increased fludarabine exposure (≥13.8 mg*hr/L): no apparent increased infection risk
[1]; neurotoxicity limited to ICANS graded patients
  association of optimal fludarabine exposure with toxicity (CRS, neurotoxicity): not associated with increased CRS or neurotoxicity; also recorded: No increase in toxicity
[1]; optimal flu (≥13.8 mg*hr/L), 5/67
  ICANS grade ≥3 (sICANS): 7%
[1]; optimal flu (≥13.8 mg*hr/L), 5/67, listed as flu
  ICANS grade ≥3 (sICANS): (7%)
[1]; optimal flu (≥13.8 mg*hr/L), 15/67
  ICANS grade ≥1: 22%
[1]; optimal flu (≥13.8 mg*hr/L), 15/67, listed as flu
  ICANS grade ≥1: (22%)
[1]; optimal flu (≥13.8 mg*hr/L), 18/102
  CRS grade ≥3 (sCRS): 18%
[1]; optimal flu (≥13.8 mg*hr/L), 18/102, listed as flu
  CRS grade ≥3 (sCRS): (18%)
[1]; optimal fludarabine exposure, 36/102
  infection post CAR T cell therapy: 35%
[1]; patients receiving optimal fludarabine
  Grade 4 neutropenia: 65%
[1]; patients receiving suboptimal fludarabine
  Grade 4 neutropenia: 67%
[1]; sub-optimal flu (<13.8 mg*hr/L), 4/31
  ICANS grade ≥3 (sICANS): 13%
[1]; sub-optimal flu (<13.8 mg*hr/L), 4/31, listed as flu
  ICANS grade ≥3 (sICANS): (13%)
[1]; sub-optimal flu (<13.8 mg*hr/L), 9/31
  ICANS grade ≥1: 29%
[1]; sub-optimal flu (<13.8 mg*hr/L), 9/31, listed as flu
  ICANS grade ≥1: (29%)
[1]; sub-optimal flu (<13.8 mg*hr/L), 15/50
  CRS grade ≥3 (sCRS): 30%
[1]; sub-optimal flu (<13.8 mg*hr/L), 15/50, listed as flu
  CRS grade ≥3 (sCRS): (30%)
[1]; suboptimal fludarabine exposure, 21/50
  infection post CAR T cell therapy: 42%
